Reference: patent US10266526B2, “Substituted 1,2,3-triazoles as SMYD inhibitors for treating cancer” (EPIZYME, INC., priority 2014, dated 2019)

These molecules were tested against SMYD3 (Homo sapiens (Human), UniProt Q9H7B4) (assay: SMYD3 biochemical assay (SMYD3 enzyme assay on MEKK2 protein substrate, 3H-SAM scintillation proximity assay)). Conditions: Table 1A; average of n = 1 to n = 50; read-out: SMYD3 Biochem IC50.
Summary of the method: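 Native full-length human SMYD3, expressed in E. coli, was preincubated with compound for 30 min at room temperature in 25 mM Tris-Cl pH 8.0, 1 mM TCEP, 0.005% BSG and 0.005% Tween 20. ³H-SAM plus GST-MEKK2 then started the reaction. It was stopped with unlabeled SAM (100 uM final), and methylated MEKK2 was read by SPA.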

Sequence of SMYD3 (Q9H7B4 whole entry): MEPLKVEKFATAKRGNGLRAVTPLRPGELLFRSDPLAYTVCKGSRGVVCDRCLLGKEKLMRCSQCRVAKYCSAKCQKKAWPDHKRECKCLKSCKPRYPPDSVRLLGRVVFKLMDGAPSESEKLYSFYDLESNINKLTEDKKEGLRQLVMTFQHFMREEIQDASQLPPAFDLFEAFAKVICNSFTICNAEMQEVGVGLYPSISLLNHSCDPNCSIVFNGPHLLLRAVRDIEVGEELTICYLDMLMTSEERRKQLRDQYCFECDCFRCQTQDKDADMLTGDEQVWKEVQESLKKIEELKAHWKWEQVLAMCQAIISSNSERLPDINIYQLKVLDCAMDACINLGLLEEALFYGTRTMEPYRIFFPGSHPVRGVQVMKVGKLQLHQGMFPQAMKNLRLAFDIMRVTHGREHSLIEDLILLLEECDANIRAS

IC50 [µM]	Structure (SMILES)
> 10	N[C@H]1CC[C@H](NC(=O)c2cnc3ncccn23)CC1 [compound 574, N-((1r,4r)-4-aminocyclohexyl)imidazo[1,2-a]pyrimidine-3-carboxamide]

Same assay, conditions: read-out: SMYD3 Biochem IC50

IC50 [µM]	Structure (SMILES)
> 100	Cn1nccc1C(=O)N[C@H]1CC[C@H](N)CC1 [compound 415, N-((1r,4r)-4-aminocyclohexyl)-1-methyl-1H-pyrazole-5-carboxamide]
> 100	Cc1cc(C)c(C(=O)NC(C)C2CCN(C(=O)[C@H](C)N)CC2)c(=O)[nH]1 (stereo partly drawn) [compound 274, N-(1-(1-(L-alanyl)piperidin-4-yl)ethyl)-4,6-dimethyl-2-oxo-1,2-dihydropyridine-3-carboxamide]
> 100	CC(NC(=O)c1cnccc1N)C1CCN(C(=O)[C@H](C)N)CC1 (stereo partly drawn) [compound 247, N-(1-(1-(L-alanyl)piperidin-4-yl)ethyl)-4-aminonicotinamide]
> 100	NCCC(=O)N[C@H]1CC[C@H](NC(=O)c2cncs2)CC1 [compound 442, N-((1r,4r)-4-(3-aminopropanamido)cyclohexyl)thiazole-5-carboxamide]
> 100	NCCC(=O)N[C@H]1CC[C@H](NC(=O)c2ccc(N)nc2)CC1 [compound 388, 6-amino-N-((1r,4r)-4-(3-aminopropanamido)cyclohexyl)nicotinamide]
53.1	NCCC(=O)N[C@H]1CC[C@H](NC(=O)c2ccc(-n3cncn3)cc2)CC1 [compound 473, N-((1r,4r)-4-(3-aminopropanamido)cyclohexyl)-4-(1H-1,2,4-triazol-1-yl)benzamide]
> 100	NCCC(=O)N[C@H]1CC[C@H](NC(=O)c2cc(O)c3ccccc3n2)CC1 [compound 404, N-((1r,4r)-4-(3-aminopropanamido)cyclohexyl)-4-hydroxyquinoline-2-carboxamide]
> 100	N[C@H]1CC[C@H](NC(=O)C2C[C@@H]3C=C[C@H]2C3)CC1 (stereo partly drawn) [compound 417, (1r,4r)-N-((1r,4R)-4-aminocyclohexyl)bicyclo[2.2.1]hept-5-ene-2-carboxamide]
> 100	COc1cccc(C(=O)N[C@H]2CC[C@H](NC(=O)CCN)CC2)n1 [compound 353, N-((1r,4r)-4-(3-aminopropanamido)cyclohexyl)-6-methoxypicolinamide]
18.8	CC(C)(CNC(=O)CN)CNS(=O)(=O)c1ccc2c(c1)CC(=O)N2 [compound 486, 2-amino-N-(2,2-dimethyl-3-((2-oxoindoline)-5-sulfonamido)propyl)acetamide]
69.1	N[C@H]1CC[C@H](NC(=O)c2ccc3c(c2)OC(F)(F)O3)CC1 [compound 285, N-((1r,4r)-4-aminocyclohexyl)-2,2-difluorobenzo[d][1,3]dioxole-5-carboxamide]
> 50	N[C@H]1CC[C@H](NC(=O)c2cncnc2O)CC1 [compound 493, N-((1r,4r)-4-aminocyclohexyl)-4-hydroxypyrimidine-5-carboxamide]
4.46	NCCC(=O)N[C@H]1CC[C@H](C(=O)Nc2ccc3c(c2)CC(=O)N3)CC1 [compound 467, (1r,4r)-4-(3-aminopropanamido)-N-(2-oxoindolin-5-yl)cyclohexane-1-carboxamide]
37.9	N[C@H]1CC[C@H](NC(=O)c2ccc3c(c2)CNC3=O)CC1 [compound 487, N-((1r,4r)-4-aminocyclohexyl)-1-oxoisoindoline-5-carboxamide]
43.6	NCCC(=O)N[C@H]1CC[C@H](NC(=O)c2ccc(N3CCCC3)cc2)CC1 [compound 279, N-((1r,4r)-4-(3-aminopropanamido)cyclohexyl)-4-(pyrrolidin-1-yl)benzamide]
64.9	CC(NC(=O)c1nccn1C)C1CCN(C(=O)[C@H](C)N)CC1 (stereo partly drawn) [compound 253, N-(1-(1-(L-alanyl)piperidin-4-yl)ethyl)-1-methyl-1H-imidazole-2-carboxamide]

IC50 [µM]	Structure (SMILES)
> 100	CC(NC(=O)c1ccnn1C)C1CCN(C(=O)[C@H](C)N)CC1 (stereo partly drawn) [compound 413, N-(l-(1-(L-alanyl)piperidin-4-yl)ethyl)-1-methyl-1H-pyrazole-5-carboxamide]
> 100	CC(=O)Nc1ccc(C(=O)N[C@H]2CC[C@H](NC(=O)CCN)CC2)nc1 [compound 463, 5-acetamido-N-((1r,4r)-4-(3-aminopropanamido)cyclohexyl)picolinamide]
> 100	Nc1ccc(C(=O)N[C@H]2CC[C@H](N)CC2)nc1 [compound 438, 5-amino-N-((1r,4r)-4-aminocyclohexyl)picolinamide]
> 100	NCCC(=O)N[C@H]1CC[C@H](NC(=O)CCCn2ccnc2)CC1 [compound 375, N-((1r,4r)-4-(3-aminopropanamido)cyclohexyl)-4-(1H-imidazol-1-yl)butanamide]
> 100	N[C@H]1CC[C@H](NC(=O)c2cc3cc(F)ccc3[nH]2)CC1 [compound 242, N-((1r,4r)-4-aminocyclohexyl)-5-fluoro-1H-indole-2-carboxamide]
> 100	Cc1ccc(C(=O)N[C@H]2CC[C@H](N)CC2)cn1 [compound 346, N-((1r,4r)-4-aminocyclohexyl)-6-methylnicotinamide]
85.1	NCCC(=O)N[C@H]1CC[C@H](NC(=O)c2ccc3c(c2)no[n+]3[O-])CC1 [compound 331, 5-(((1r,4r)-4-(3-aminopropanamido)cyclohexyl)carbamoyl)benzo[c][1,2,5]oxadiazole 1-oxide]
> 100	CC(NC(=O)c1cccc(N)n1)C1CCN(C(=O)[C@H](C)N)CC1 (stereo partly drawn) [compound 418, N-(1-(1-(L-alanyl)piperidin-4-yl)ethyl)-6-aminopicolinamide]
> 100	NCCC(=O)N[C@H]1CC[C@H](NC(=O)c2nc3ccccc3s2)CC1 [compound 427, N-((1r,4r)-4-(3-aminopropanamido)cyclohexyl)benzo[d]thiazole-2-carboxamide]
> 100	Cc1cnccc1C(=O)N[C@H]1CC[C@H](N)CC1 [compound 380, N-((1r,4r)-4-aminocyclohexyl)-3-methylisonicotinamide]
7.49	NCCC(=O)N[C@H]1CC[C@H](NC(=O)c2ccc3c(c2)OC(F)(F)O3)CC1 [compound 330, N-((1r,4r)-4-(3-aminopropanamido)cyclohexyl)-2,2-difluorobenzo[d][1,3]dioxole-5-carboxamide]
39.1	CC1Oc2ccc(C(=O)N[C@H]3CC[C@H](N)CC3)cc2NC1=O (stereo partly drawn) [compound 452, N-((1r,4r)-4-aminocyclohexyl)-2-methyl-3-oxo-3,4-dihydro-2H-benzo[b][1,4]oxazine-6-carboxamide]
48	N[C@H]1CC[C@H](NC(=O)c2ccc(N3CCCC3)cc2)CC1 [compound 280, N-((1r,4r)-4-aminocyclohexyl)-4-(pyrrolidin-1-yl)benzamide]
> 50	NCCC(=O)NC1CCC(NC(=O)c2ncc[nH]2)CC1 (stereo not drawn) [compound 518, N-(4-(3-aminopropanamido)cyclohexyl)-1H-imidazole-2-carboxamide]
> 100	N[C@H]1CC[C@H](NC(=O)c2cnccn2)CC1 [compound 298, N-((1r,4r)-4-aminocyclohexyl)pyrazine-2-carboxamide]
> 100	CC(=O)Nc1ccc(C(=O)NC(C)C2CCN(C(=O)[C@H](C)N)CC2)nc1 (stereo partly drawn) [compound 462, N-(1-(1-(L-alanyl)piperidin-4-yl)ethyl)-5-acetamidopicolinamide]

Same assay, conditions: read-out: SMYD3 Biochem IC50 (μM)*

IC50 [µM]	Structure (SMILES)
91.5	CC(=O)c1cccc(C(=O)N[C@H]2CC[C@H](N)CC2)c1 [compound 23, 3-acetyl-N-((1r,4r)-4-aminocyclohexyl)benzamide]
16.4	N[C@H]1CC[C@H](NC(=O)c2nnc[nH]2)CC1 [compound 127, N-((1r,4r)-4-aminocyclohexyl)-4H-1,2,4-triazole-3-carboxamide]
> 100	N[C@H]1CC[C@H](NC(=O)c2ccc3cc[nH]c3c2)CC1 [compound 160, N-((1r,4r)-4-aminocyclohexyl)-1H-indole-6-carboxamide]
25.9	Cc1cc2[nH]c(C(=O)Nc3ccc(CN)cc3)cc2o1 [compound 81, N-(4-(aminomethyl)phenyl)-2-methyl-4H-furo[3,2-b]pyrrole-5-carboxamide]
14	C[C@H](N)C(=O)NCCCCNC(=O)c1ccc2c(c1)CC(=O)N2 [compound 107, (S)-N-(4-(2-aminopropanamido)butyl)-2-oxoindoline-5-carboxamide]
134	CC(=O)c1c[nH]c(C(=O)N[C@H]2CC[C@H](N)CC2)c1 [compound 64, 4-acetyl-N-((1r,4r)-4-aminocyclohexyl)-1H-pyrrole-2-carboxamide]
35.2	CCS(=O)(=O)C(C)C(=O)N[C@H]1CC[C@H](N)CC1 (stereo partly drawn) [compound 78, N-((1r,4r)-4-aminocyclohexyl)-2-(ethylsulfonyl)propanamide]
13.5	CCc1cc(C(=O)N[C@H]2CC[C@H](N)CC2)ns1 [compound 17, N-((1r,4r)-4-aminocyclohexyl)-5-ethylisothiazole-3-carboxamide]
86.1	O=C1Cc2cc(C(=O)NC3CCNCC3)cnc2N1 [compound 68, 2-oxo-N-(piperidin-4-yl)-2,3-dihydro-1H-pyrrolo[2,3-b]pyridine-5-carboxamide]
> 100	NCCC(=O)N[C@H]1CC[C@H](NC(=O)c2ncccn2)CC1 [compound 145, N-((1r,4r)-4-(3-aminopropanamido)cyclohexyl)pyrimidine-2-carboxamide]
0.69	N[C@@H](Cc1c[nH]c2ccccc12)C(=O)N1CCC(NC(=O)c2ccc3c(c2)CC(=O)N3)CC1 [compound 51, N-(1-(L-tryptophyl)piperidin-4-yl)-2-oxoindoline-5-carboxamide]
89.5	N[C@H]1CC[C@H](NC(=O)c2ccc3c(c2)NC(=O)CC3)CC1 [compound 91, N-((1r,4r)-4-aminocyclohexyl)-2-oxo-1,2,3,4-tetrahydroquinoline-7-carboxamide]
